Measurements as given in the supplement of paper PMC10331698.
± gives the standard deviation of the averaged measurements.

Assays:
Assay in all cases: level (log10 ratio to DMSO vehicle control); higher = higher biomarker level / cell amount than vehicle control
Conditions in all cases: in DMSO
[1] = compound: OCC(F)(F)C(F)(F)C(F)(F)F [1H,1H-Heptafluorobutanol]
Description: (§1)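 BioMAP Diversity Plus panel of 12 human primary cell co-culture systems (3C, 4H, LPS, SAg, BT, BF4T, BE3C, CASM3C, HDF3CGF, KF3CT, MyoF, Mphg). Compounds were added 1 h before stimulation and left for 24 h (MyoF 48 h; BT 72 h for soluble read-outs or 6 d for IgG). Biomarkers were read by ELISA, cytotoxicity by SRB, PBMC viability and proliferation by Alamar Blue. Each well value was divided by the mean of 8 DMSO control wells on the same plate and log10 transformed; duplicate blinded samples were tested at 4 concentrations.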

[2] = compound: NC(=O)C(F)(F)C(F)(F)C(F)(F)C(F)(F)C(F)(F)C(F)(F)C(F)(F)F [Perfluorooctanamide]
Description: as §1

[3] = compound: CC(C)(C)C(=O)CC(=O)C(F)(F)C(F)(F)C(F)(F)F [(Heptafluorobutanoyl)pivaloylmethane]
Description: as §1

[4] = compound: O=C(O)C(F)(F)C(F)(F)C(F)(F)C(=O)O [Hexafluoroglutaric acid]
Description: as §1

[5] = compound: C=CC(=O)OCCC(F)(F)C(F)(F)C(F)(F)C(F)(F)F [2-(Perfluorobutyl)ethyl acrylate]
Description: as §1

[6] = compound: O=C(O)C(F)(F)C(F)(F)C(F)(F)C(F)(F)C(F)(F)C(F)(F)C(F)(F)C(F)(F)Cl [9-Chloro-perfluorononanoic acid]
Description: as §1

[7] = compound: O=C(O)CCC(F)(F)C(F)(F)C(F)(F)C(F)(F)C(F)(F)F [2H,2H,3H,3H-Perfluorooctanoic acid]
Description: as §1

Row | Test System | level (log10) ([1]; 6700 nM) | level (log10) ([1]; 20000 nM) | level (log10) ([1]; 60000 nM) | level (log10) ([2]; 6700 nM) | level (log10) ([2]; 20000 nM) | level (log10) ([2]; 60000 nM) | level (log10) ([3]; 6700 nM) | level (log10) ([3]; 20000 nM) | level (log10) ([3]; 60000 nM) | level (log10) ([4]; 6700 nM) | level (log10) ([4]; 20000 nM) | level (log10) ([4]; 60000 nM) | level (log10) ([5]; 6700 nM) | level (log10) ([5]; 20000 nM) | level (log10) ([5]; 60000 nM) | level (log10) ([6]; 6700 nM) | level (log10) ([6]; 20000 nM) | level (log10) ([7]; 6700 nM) | level (log10) ([7]; 20000 nM) | level (log10) ([7]; 60000 nM)
1 | MyoF:TIMP-1 | 0.0115 ± 0.028 | 0.014 ± 0.035 | 0.025 ± 0.03 | -0.016 ± 0.014 | 0.0075 ± 0.012 | -0.0375 ± 0.0021 | 0.0095 ± 0.028 | 0.0135 ± 0.06 | 0.009 ± 0.047 | 0.001 ± 0.014 | -0.0545 ± 0.053 | -0.0205 ± 0.0035 | -0.031 ± 0.048 | 0.0025 ± 0.018 | 0.016 ± 0.042 | -0.0445 ± 0.063 | -0.006 ± 0.057 | -0.035 ± 0.088 | -0.0365 ± 0.087 | -0.0155 ± 0.071
2 | lMphg:CD62E/E-Selectin | -0.0085 ± 0.021 | 0.001 ± 0.017 | 0 ± 0.045 | 0.022 ± 0.048 | 0.0285 ± 0.043 | -0.0165 ± 0.07 | -0.017 | -0.0085 ± 0.012 | -0.0525 ± 0.011 | -0.0065 ± 0.026 | 0.001 ± 0.02 | -0.0165 ± 0.043 | 0.01 ± 0.0071 | -0.006 ± 0.0099 | 0.001 ± 0.0042 | 0.01 ± 0.0099 | 0.017 ± 0.0042 | 0.0015 ± 0.035 | 0.0165 ± 0.0064 | 0.0415 ± 0.00071
3 | MyoF:Decorin | 0.0055 ± 0.0064 | 0.013 ± 0.016 | 0.02 ± 0.03 | -0.0145 ± 0.05 | 0.027 ± 0.078 | 0.0305 ± 0.04 | 0.0195 ± 0.059 | 0.018 ± 0.03 | 0.0365 ± 0.021 | -0.0145 ± 0.0078 | -0.0225 ± 0.0064 | -0.031 ± 0.0099 | 0.0005 ± 0.016 | 0.004 ± 0.016 | 0.022 ± 0.037 | 0.012 ± 0.0014 | -0.0045 ± 0.05 | -0.0075 ± 0.0021 | -0.0065 ± 0.00071 | 0.019 ± 0.0071
4 | KF3CT:CXCL9/MIG | -0.0015 ± 0.0021 | 0.002 ± 0.0028 | 0.0055 ± 0.005 | 0.0035 ± 0.039 | 0.0105 ± 0.016 | 0.018 ± 0.0042 | 0.0025 ± 0.0035 | -0.002 ± 0.0042 | 0.0055 ± 0.0021 | -0.007 ± 0.0014 | -0.0075 ± 0.0064 | -0.0065 ± 0.0021 | -0.0035 ± 0.0021 | 0.008 ± 0.0042 | -0.0235 ± 0.015 | 0.0025 ± 0.0092 | -0.0015 ± 0.0021 | -0.004 ± 0.011 | 0.0025 ± 0.0092 | 0.0075 ± 0.00071
5 | MyoF:alpha-SM Actin | 0.0105 ± 0.0064 | -0.0045 ± 0.0078 | -0.004 ± 0.02 | -0.0095 ± 0.005 | -0.023 ± 0.017 | -0.045 ± 0.0085 | -0.006 ± 0.05 | -0.002 ± 0.034 | -0.0215 ± 0.0021 | -0.008 ± 0.044 | -0.0065 ± 0.029 | 0.033 ± 0.017 | -0.0075 ± 0.0078 | -0.0325 ± 0.00071 | -0.0665 ± 0.00071 | -0.009 ± 0.028 | -0.022 ± 0.013 | 0.048 ± 0.024 | 0.017 ± 0.013 | 0.0205 ± 0.061
6 | KF3CT:CXCL8/IL-8 | -0.02 ± 0.0014 | -0.021 ± 0.0028 | -0.0025 ± 0.016 | -0.005 ± 0.0014 | -0.027 ± 0.018 | -0.062 ± 0.0057 | -0.015 ± 0.011 | -0.0165 ± 0.0078 | 0.016 ± 0.0014 | -0.0115 ± 0.025 | -0.006 ± 0.0057 | -0.0135 ± 0.0021 | -0.0095 ± 0.021 | -0.003 ± 0.0014 | -0.0105 ± 0.018 | 0.0015 ± 0.021 | -0.0025 ± 0.0035 | -0.017 ± 0.042 | -0.009 ± 0.028 | -0.0295 ± 0.0021
7 | lMphg:sIL-10 | -0.165 ± 0.033 | 0.032 ± 0.014 | -0.0565 ± 0.097 | -0.029 ± 0.0028 | 0.013 ± 0.042 | 0.008 ± 0.058 | 0.024 ± 0.0099 | -0.0365 ± 0.061 | 0.0125 ± 0.032 | -0.0745 ± 0.037 | -0.0775 ± 0.056 | -0.102 ± 0.0078 | -0.0435 ± 0.011 | -0.07 ± 0.021 | -0.0715 ± 0.054 | 0.0205 ± 0.0078 | -0.015 ± 0.0085 | -0.073 ± 0.0085 | -0.043 | -0.216 ± 0.011
8 | CASM3C:HLA-DR | 0.015 ± 0.0057 | -0.004 ± 0.0028 | 0.011 ± 0.0028 | 0.003 ± 0.041 | 0.0125 ± 0.0092 | 0.0005 ± 0.011 | 0.011 ± 0.0014 | 0.0005 ± 0.0092 | 0.0255 ± 0.0035 | 0.0165 ± 0.049 | -0.015 ± 0.045 | 0.0055 ± 0.019 | -0.0245 ± 0.025 | -0.017 ± 0.014 | -0.0205 ± 0.011 | 0.0085 ± 0.0035 | 0.0015 ± 0.012 | 0.004 ± 0.0057 | -0.026 ± 0.021 | -0.014
9 | BE3C:MMP-9 | 0.002 ± 0.0042 | 0.0015 ± 0.0064 | 0.0175 ± 0.033 | -0.0085 ± 0.0064 | 0.002 ± 0.0028 | 0.0015 ± 0.013 | -0.0145 ± 0.018 | 0.004 ± 0.0014 | -0.032 ± 0.04 | -0.0035 ± 0.023 | -0.0025 ± 0.032 | 0.0145 ± 0.042 | -0.004 ± 0.0071 | -0.006 ± 0.0014 | -0.028 ± 0.0085 | 0.001 ± 0.014 | -0.04 ± 0.014 | -0.0025 ± 0.025 | -0.003 ± 0.014 | 0.0195 ± 0.033
10 | BE3C:tPA | -0.019 ± 0.021 | -0.0125 ± 0.061 | 0.0005 ± 0.005 | 0.008 ± 0.018 | 0.0385 ± 0.011 | 0.049 ± 0.05 | -0.026 ± 0.0071 | -0.0035 ± 0.025 | -0.0275 ± 0.032 | -0.008 ± 0.0014 | -0.0465 ± 0.005 | -0.0085 ± 0.022 | -0.036 ± 0.041 | -0.056 ± 0.0014 | -0.13 ± 0.018 | 0.0195 ± 0.023 | -0.0985 ± 0.023 | -0.0005 ± 0.005 | -0.0035 ± 0.013 | 0.0265 ± 0.013
11 | HDF3CGF:PAI-I | -0.037 ± 0.037 | -0.0045 ± 0.025 | -0.054 ± 0.083 | -0.016 ± 0.013 | -0.03 ± 0.0099 | -0.0235 ± 0.0078 | 0.011 ± 0.016 | 0.0255 ± 0.00071 | 0.0685 ± 0.049 | -0.0115 ± 0.016 | -0.007 ± 0.014 | 0.0075 ± 0.021 | -0.0135 ± 0.0035 | -0.0185 ± 0.023 | -0.016 ± 0.024 | 0.0685 ± 0.033 | 0.0245 ± 0.015 | 0.0145 ± 0.016 | -0.004 ± 0.011 | -0.0085 ± 0.0078
12 | HDF3CGF:TIMP-1 | -0.021 ± 0.017 | -0.028 ± 0.0099 | -0.048 ± 0.11 | -0.0405 ± 0.049 | -0.022 ± 0.02 | -0.0575 ± 0.0035 | -0.011 ± 0.03 | -0.0005 ± 0.005 | 0.0085 ± 0.018 | -0.0385 ± 0.026 | -0.02 ± 0.072 | -0.045 ± 0.073 | -0.0375 ± 0.033 | -0.0285 ± 0.0064 | -0.053 ± 0.03 | -0.028 ± 0.027 | -0.0105 ± 0.056 | -0.019 ± 0.064 | -0.01 ± 0.11 | -0.047 ± 0.17
13 | KF3CT:TIMP-2 | 0.0155 ± 0.011 | 0.002 ± 0.0057 | -0.007 ± 0.0042 | -0.045 ± 0.0085 | -0.0245 ± 0.04 | -0.033 ± 0.011 | 0.001 ± 0.021 | 0.002 ± 0.014 | -0.015 ± 0.0014 | -0.026 ± 0.014 | -0.028 ± 0.0042 | -0.013 ± 0.011 | 0.0145 ± 0.0021 | -0.0175 ± 0.0078 | -0.009 ± 0.023 | -0.0205 ± 0.0021 | -0.0015 ± 0.0021 | -0.011 | -0.02 ± 0.024 | 0.015 ± 0.0099
14 | MyoF:CXCL8/IL-8 | -0.0145 ± 0.033 | 0.016 ± 0.02 | 0.008 ± 0.0057 | -0.01 ± 0.0071 | 0.0135 ± 0.023 | 0.03 ± 0.014 | 0.022 ± 0.05 | 0.032 ± 0.068 | 0.03 ± 0.055 | -0.0085 ± 0.0021 | -0.0225 ± 0.013 | -0.0015 ± 0.021 | -0.0045 ± 0.0078 | -0.0025 ± 0.016 | 0.02 ± 0.025 | 0.0025 ± 0.015 | -0.06 ± 0.0057 | -0.032 ± 0.0042 | -0.0215 ± 0.005 | -0.018
15 | MyoF:PAI-I | 0.0065 ± 0.0035 | 0.002 ± 0.0071 | -0.001 | -0.009 | -0.014 ± 0.0071 | 0.005 ± 0.0014 | 0.009 ± 0.016 | 0.009 ± 0.024 | 0.0195 ± 0.018 | -0.0025 ± 0.021 | -0.0035 ± 0.015 | 0.003 | -0.003 ± 0.0071 | 0.001 ± 0.023 | 0.0005 ± 0.018 | -0.0065 ± 0.0078 | -0.0185 ± 0.011 | -0.009 ± 0.0028 | -0.0155 ± 0.005 | -0.0025 ± 0.005
